From patent US8906904B2, “Alkoxy pyrazoles as soluble guanylate cyclase activators” (Boehringer Ingelheim International GmbH, priority 2012, dated 2014)

How the values were obtained:
[1] = human liver microsome (HLM) metabolic stability assay; format: in vitro ADME; settings: human liver microsomes; % hepatic blood flow calculated from t1/2
In short: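 Compounds at 1 uM incubated with human liver microsomes plus NADPH at 37° C., sampled at 0, 5, 15, 30 and 60 min into cold acetonitrile and quantified by LC/MS/MS. t½ from the slope of ln % remaining vs time; CLint, CLh and % Qh derived from it (n=1).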

[2] = target: T1, human soluble guanylate cyclase alpha 1 and beta 1 subunits (sGC) (Homo sapiens, UniProt Q02108+Q02153); assay: sGC cellular activator assay (cGMP, HTRF); format: cell-based; settings: CHO cells stably expressing human sGC alpha 1/beta 1, preincubated with 40 microM ODQ; cGMP readout; assay run with and without 50% human serum, Table 2 does not say which
T1 construct: expressed in transfected cells; host or cells: Chinese hamster ovary (CHO) cells, stably transfected
T1 sequence (Q02108 1-690): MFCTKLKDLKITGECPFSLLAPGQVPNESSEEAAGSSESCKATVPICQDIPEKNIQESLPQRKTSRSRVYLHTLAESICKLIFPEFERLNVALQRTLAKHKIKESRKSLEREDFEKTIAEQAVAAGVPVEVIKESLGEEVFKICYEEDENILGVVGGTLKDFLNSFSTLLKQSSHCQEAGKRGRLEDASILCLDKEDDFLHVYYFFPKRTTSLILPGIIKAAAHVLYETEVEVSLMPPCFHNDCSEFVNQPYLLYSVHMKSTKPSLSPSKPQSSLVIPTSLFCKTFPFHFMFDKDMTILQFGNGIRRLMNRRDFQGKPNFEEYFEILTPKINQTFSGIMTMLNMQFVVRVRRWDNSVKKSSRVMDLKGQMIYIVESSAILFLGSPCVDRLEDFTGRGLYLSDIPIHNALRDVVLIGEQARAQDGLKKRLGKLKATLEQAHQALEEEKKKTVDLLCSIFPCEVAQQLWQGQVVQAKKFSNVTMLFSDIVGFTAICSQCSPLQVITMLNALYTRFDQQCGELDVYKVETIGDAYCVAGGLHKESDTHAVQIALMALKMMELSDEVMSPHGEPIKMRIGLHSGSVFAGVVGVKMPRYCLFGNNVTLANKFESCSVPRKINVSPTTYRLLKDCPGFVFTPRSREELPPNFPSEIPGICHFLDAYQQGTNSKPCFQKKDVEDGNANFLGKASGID
T1 sequence (Q02153 1-619): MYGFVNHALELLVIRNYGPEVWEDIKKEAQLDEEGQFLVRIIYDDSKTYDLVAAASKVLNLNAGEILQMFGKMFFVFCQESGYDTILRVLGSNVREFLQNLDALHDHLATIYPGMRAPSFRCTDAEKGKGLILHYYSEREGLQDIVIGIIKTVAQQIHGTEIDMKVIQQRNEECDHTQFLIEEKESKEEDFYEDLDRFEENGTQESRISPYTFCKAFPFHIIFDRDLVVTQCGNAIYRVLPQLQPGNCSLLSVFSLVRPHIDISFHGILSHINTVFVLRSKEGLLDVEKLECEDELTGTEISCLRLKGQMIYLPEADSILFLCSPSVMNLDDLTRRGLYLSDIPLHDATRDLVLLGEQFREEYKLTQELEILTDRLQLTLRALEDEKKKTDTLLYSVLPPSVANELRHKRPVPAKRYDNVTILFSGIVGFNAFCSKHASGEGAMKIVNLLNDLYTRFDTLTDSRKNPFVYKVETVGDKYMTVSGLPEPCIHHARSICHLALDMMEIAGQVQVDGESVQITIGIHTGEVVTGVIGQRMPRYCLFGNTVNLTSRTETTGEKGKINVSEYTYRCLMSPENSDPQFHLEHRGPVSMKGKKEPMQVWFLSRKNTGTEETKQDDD
In short: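 Heme-oxidized conditions: ODQ (40 microM, 1 h) pretreatment of CHO cells stably expressing human α1/β1 sGC, in buffer containing 0.1% BSA and IBMX.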

| HLM (% Qh) [1] [% Qh] | EC50 [2] [nM] | SMILES |
| --- | --- | --- |
| <24 | 14 | Cc1cc(COc2c(C)cccc2-c2cccc(-n3ncc(C(=O)O)c3OC(C)C)n2)cc2c1CN(C1CCOCC1)CC2 [Compound 161] |
| 26 | 31 | Cc1cccc(-c2cccc(-n3ncc(C(=O)O)c3OC(C)C)n2)c1OCc1ccc2c(c1C)CCN(C1CCOCC1)C2 [Compound 104] |
| 27 | 6.6 | COc1c(C(=O)O)cnn1-c1cccc(-c2cccc(C)c2OCc2ccc3c(c2C(F)(F)F)CCN(C2CCOCC2)C3)n1 [Compound 166] |
